This assay is described as follows: Anti-HIV Cytoprotection Assay: The in vitro antiviral activity profile for CMX157 was evaluated for cell-type effects and HIV strain effects.
Take `C[C@H](Cn1cnc2c(N)ncnc21)OCP(=O)(O)OCCCOCC(=O)O`: the EC50 (commonly the concentration at which the effect is half-maximal) was more than 10 µM.
Under `C[C@H](Cn1cnc2c(N)ncnc21)OCP(=O)(O)OCCCOCCCC(=O)O` stands more than 10 µM; under `C[C@H](Cn1cnc2c(N)ncnc21)OCP(=O)(O)OCCCO`, more than 10 µM; under `CCCCCCCCCCCCCCCCOCCCOP(=O)(O)CO[C@H](C)Cn1cnc2c(N)ncnc21` [TENOFOVIR EXALIDEX], less than 0.03 µM.

Source of the values: ChEMBL document CHEMBL5725298 (2017).
